# Measurements from article PMC8145110, “Design, Synthesis, and Antibacterial Screening of Some Novel Heteroaryl-Based Ciprofloxacin Derivatives as DNA Gyrase and Topoisomerase IV Inhibitors” (Pharmaceuticals, 2021).
# Legend:
# B. subtilis = experiment: MIC, two-fold serial dilution, B. subtilis; assay type: cell-based; conditions: Bacillus subtilis; read-out: Minimum Inhibitory Concentration (MIC), B. subtilis
# Description: (§1) Table 2, using the reference drug ciprofloxacin, was presented with the MICs (minimal inhibitory concentrations) of these compounds against tested bacteria. […] The nature of aromatic substitution in the oxadiazole moiety tends to be correlated with higher antibacterial effects and the activity increased with (Ar) in the order of 2-pyridyl ≥ 3-pyridyl > 4-pyridyl > 2-Cl-Ph > 2-naphthyl.
# (§2) On 96-well microtiter plates and […] of fresh bacterial culture of a single McFarland unit overnight, a double serial dilution of each compound […] in sterile standard saline was prepared for every single source well. Ciprofloxacin antibiotic (5 mg/mL^−1) and normal saline were included as standard references in each assay (see Appendix A).
# (§3) In 96-well microtiter plates and […] of fresh bacterial culture of a single McFarland unit overnight, a double serial dilution of each compound […] in sterile standard saline was prepared for every single source well. Ciprofloxacin antibiotic (5 mg/mL^−1) and normal saline were included as standard reference in each assay. The plates were incubated at 37 °C overnight. As an indicator of bacterial growth, […] of p-iodonitrotetrazolium violet (INT) was added to each well and incubated at 37 °C for 30 min. […] The colorless tetrazolidium salt acts as an electron accepter and is reduced to a red colored formazan product by biological activity organisms. Where bacterial growth was inhibited, the solution in the well remained clear after incubation with INT.
# S. aureus = experiment: MIC, two-fold serial dilution, S. aureus; assay type: cell-based, Staphylococcus aureus; conditions: for MIC: Staphylococcus aureus, read-out: Minimum Inhibitory Concentration (MIC), S. aureus
# Description: as §1, §2, §3
# E. coli = experiment: MIC, two-fold serial dilution, E. coli; assay type: cell-based; conditions: Escherichia coli; read-out: Minimum Inhibitory Concentration (MIC), E. coli
# Description: as §1, §2, §3
# P. aeruginosa = experiment: MIC, two-fold serial dilution, P. aeruginosa; assay type: cell-based; conditions: Pseudomonas aeruginosa; read-out: Minimum Inhibitory Concentration (MIC), P. aeruginosa
# Description: as §1, §2, §3
# E. coli DNA gyrase = target: T1, E. coli DNA gyrase (Escherichia coli, UniProt P0AES4+P0AES6); experiment: E. coli DNA gyrase assay; assay type: biochemical; conditions: read-out: RA (%), residual activity of E. coli DNA Gyrase
# T1 construct: purchased Inspiralis
# Description: (§4) IC50 assay determination was carried out in accordance with the procedures previously stated (see Appendix A).
# (§5) Inhibitory activities were determined in an assay from Inspiralis on streptavidin-coated 96-well microtiter plates from Thermo scientific Pierce. […] After washing off the unbound oligonucleotide, the enzyme test was performed. […] After that, the TF buffer (50 mM NaOAc with pH 5.0, 50 mM NaCl and 50 mM MgCl2) was added to terminate the enzymatic reaction. After additional incubation for 30 min at rt, during which biotin-oligonucleotide-plasmid triplex was 19 formed, the unbound plasmid was washed off using TF buffer and SybrGOLD in T10 buffer (10 mM Tris HCl with pH 8.0 and 1 mM EDTA) was added. […] Initial screening was done at 100 or 10 μM concentration of inhibitors. […] GraphPad Prism software was used to calculate the IC50 values. The result is given as the average value of three independent measurements. […] Determination of inhibitory activities on E. coli and S. aureus Topoisomerase IV IC50 values were determined in an assay from Inspiralis on streptavidin-coated 96-well microtiter plates from Thermo scientific Pierce. […] After washing off the unbound oligonucleotide, the enzyme test was performed. The reaction volume of 30 μL in buffer (40 mM HEPES KOH with pH 7.6, 100 mM potassium glutamate, 10 mM magnesium acetate, 10 mM DTT, 1 mM ATP, 0.05 mg/mL albumin) contained 1.5 U of topoisomerase IV from E. coli or S. aureus, 0.75 μg of pNO1 supercoiled plasmid, and 3 μL solution of the inhibitor in DMSO (10%) and Tween 20 (0.008%). […] After additional incubation for 30 min at rt, during which triplex (biotin-oligonucleotide-plasmid) was formed, the unbound plasmid was washed off using TF buffer and SybrGOLD in T10 buffer (10 mM Tris HCl with pH 8.0 and 1 mM EDTA) was added. […] Initial screening was done at 100 or 10 μM concentration of inhibitors. […] GraphPad Prism software was used to calculate the IC50 values. The result is given as the average value of three independent measurements.
# E. coli topoisomerase IV = target: T2, E. coli topoisomerase IV (Escherichia coli, UniProt P0AFI2+P20083); experiment: E. coli topoisomerase IV assay; assay type: biochemical; conditions: read-out: RA (%), residual activity of E. coli Topo IV
# T2 construct: purchased Inspiralis
# T2 sequence (P0AFI2 whole entry): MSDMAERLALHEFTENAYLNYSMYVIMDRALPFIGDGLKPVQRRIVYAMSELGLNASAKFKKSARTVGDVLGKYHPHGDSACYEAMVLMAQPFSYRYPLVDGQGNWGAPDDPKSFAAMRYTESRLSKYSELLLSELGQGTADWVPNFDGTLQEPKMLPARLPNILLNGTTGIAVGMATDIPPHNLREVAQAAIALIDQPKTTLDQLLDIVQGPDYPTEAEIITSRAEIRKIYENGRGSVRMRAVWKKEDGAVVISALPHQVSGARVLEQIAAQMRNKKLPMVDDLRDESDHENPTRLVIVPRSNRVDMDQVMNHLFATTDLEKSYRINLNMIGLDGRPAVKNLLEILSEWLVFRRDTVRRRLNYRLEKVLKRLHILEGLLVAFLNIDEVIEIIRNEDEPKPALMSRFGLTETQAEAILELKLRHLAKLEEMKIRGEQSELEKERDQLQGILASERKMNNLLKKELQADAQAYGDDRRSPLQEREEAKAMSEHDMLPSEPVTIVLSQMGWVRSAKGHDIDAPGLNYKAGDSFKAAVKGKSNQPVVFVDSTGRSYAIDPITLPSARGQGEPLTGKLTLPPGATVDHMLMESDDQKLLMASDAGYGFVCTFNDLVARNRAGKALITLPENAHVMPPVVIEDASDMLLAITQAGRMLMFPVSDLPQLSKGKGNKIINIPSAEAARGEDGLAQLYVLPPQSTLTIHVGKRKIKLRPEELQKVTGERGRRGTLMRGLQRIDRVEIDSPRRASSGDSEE
# T2 sequence (P20083 whole entry): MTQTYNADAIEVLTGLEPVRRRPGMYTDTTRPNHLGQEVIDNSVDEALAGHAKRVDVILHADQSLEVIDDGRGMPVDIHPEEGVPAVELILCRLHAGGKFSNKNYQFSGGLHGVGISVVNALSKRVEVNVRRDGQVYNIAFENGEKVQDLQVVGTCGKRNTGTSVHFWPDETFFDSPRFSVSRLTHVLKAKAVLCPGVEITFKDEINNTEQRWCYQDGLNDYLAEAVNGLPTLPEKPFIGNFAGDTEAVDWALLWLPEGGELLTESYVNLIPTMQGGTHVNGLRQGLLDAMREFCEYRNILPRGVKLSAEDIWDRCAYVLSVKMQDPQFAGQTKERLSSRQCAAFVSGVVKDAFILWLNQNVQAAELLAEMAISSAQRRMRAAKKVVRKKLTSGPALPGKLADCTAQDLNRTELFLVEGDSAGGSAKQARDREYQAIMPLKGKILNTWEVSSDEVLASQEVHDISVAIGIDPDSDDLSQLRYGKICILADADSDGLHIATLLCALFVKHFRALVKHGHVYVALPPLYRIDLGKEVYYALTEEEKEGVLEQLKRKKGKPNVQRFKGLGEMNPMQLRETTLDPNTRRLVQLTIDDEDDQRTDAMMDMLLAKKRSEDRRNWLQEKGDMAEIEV
# Description: as §4, §5
# [1] = Cell viability assay (MTT); assay type: cell-based; set-up: dose or concentration left out as unconfirmed; conditions: human, MCF-10A mammary gland epithelial cells, four days
# Description: A human mammary gland epithelial cell line (MCF-10A) was used to conduct a cell viability assay. Compounds 2–6 were incubated with MCF-10A cells for four days, and the viability of the cells was determined using the 3-(4,5-dimethylthiazol-2-yl)-2,5-diphenyltetrazolium bromide (MTT) assay. All compounds had no cytotoxic effects, and the viability of the cells was greater than 85% for most of the compounds examined […], as shown in Table 4.
# MTT Assay was performed to investigate the effect of compounds 2–6 on the viability of mammary epithelial cells (MCF-10A) (see Appendix A).
melting point [°C],Structure (SMILES),other results
280,"O=C(O)c1cn(C2CC2)c2cc(N3CCN(Cn4nc(-c5cccnc5)n(-c5ccccc5)c4=S)CC3)c(F)cc2c1=O [Compound 11, 1-Cyclopropyl-6-fluoro-4-oxo-7-[4-(4-phenyl-3-pyridin-3-yl-5-thioxo-4,5-dihydro-[1,2,4]triazol-1-ylmethyl)-piperazin-1-yl]-1,4-dihydro-quinoline-3-carboxylic acid]",
227,"O=C(O)c1cn(C2CC2)c2cc(N3CCN(Cn4nc(-c5ccncc5)n(-c5ccccc5)c4=S)CC3)c(F)cc2c1=O [Compound 12, 1-Cyclopropyl-6-fluoro-4-oxo-7-[4-(4-phenyl-3-pyridin-4-yl-5-thioxo-4,5-dihydro-[1,2,4]triazol-1-ylmethyl)-piperazin-1-yl]-1,4-dihydro-quinoline-3-carboxylic acid]",
217,"O=C(O)c1cn(C2CC2)c2cc(N3CCN(CN4C(=O)C(c5ccccc5)(c5ccccc5)NC4=S)CC3)c(F)cc2c1=O [Compound 13, 1-Cyclopropyl-6-fluoro-4-oxo-7-[4-(5-oxo-4,4-diphenyl-2-thioxo-imidazolidin-1-ylmethyl)-piperazin-1-yl]-1,4-dihydro-quinoline-3-carboxylic acid]",
234,"NN1C(=S)N(CN2CCN(c3cc4c(cc3F)c(=O)c(C(=O)O)cn4C3CC3)CC2)C(=O)C1(c1ccccc1)c1ccccc1 [Compound 14, 7-[4-(3-Amino-5-oxo-4,4-diphenyl-2-thioxo-imidazolidin-1-ylmethyl)-piperazin-1-yl]-1-cyclopropyl-6-fluoro-4-oxo-1,4-dihydro-quinoline-3-carboxylic acid]",
230,"N#CN=C1NC(c2ccccc2)(c2ccccc2)C(=O)N1CN1CCN(c2cc3c(cc2F)c(=O)c(C(=O)O)cn3C2CC2)CC1 [Compound 15, 7-[4-(2-Cyanoimino-5-oxo-4,4-diphenyl-imidazolidin-1-ylmethyl)-piperazin-1-yl]-1-cyclopropyl-6-fluoro-4-oxo-1,4-dihydro-quinoline-3-carboxylic acid]",
244,"O=C(O)c1cn(C2CC2)c2cc(N3CCN(CN4C(=O)SC(=Cc5ccc(Cl)cc5)C4=O)CC3)c(F)cc2c1=O [Compound 17, 7-{4-[5-(4-Chloro-benzylidene)-2,4-dioxo-thiazolidin-3-ylmethyl]-piperazin-1-yl}-1-cyclopropyl-6-fluoro-4-oxo-1,4-dihydro-quinoline-3-carboxylic acid]",
251,"COc1ccc(C=C2SC(=O)N(CN3CCN(c4cc5c(cc4F)c(=O)c(C(=O)O)cn5C4CC4)CC3)C2=O)cc1 [Compound 18, 1-Cyclopropyl-6-fluoro-7-{4-[5-(4-methoxy-benzylidene)-2,4-dioxo-thiazolidin-3-ylmethyl]-piperazin-1-yl}-4-oxo-1,4-dihydro-quinoline-3-carboxylic acid]",
244,"O=C(O)c1cn(C2CC2)c2cc(N3CCN(CN4C(=O)SC(=Cc5ccccc5O)C4=O)CC3)c(F)cc2c1=O [Compound 19, 1-Cyclopropyl-6-fluoro-7-{4-[5-(2-hydroxy-benzylidene)-2,4-dioxo-thiazolidin-3-ylmethyl]-piperazin-1-yl}-4-oxo-1,4-dihydro-quinoline-3-carboxylic acid]",
241,"O=C(O)c1cn(C2CC2)c2cc(N3CCN(CN4C(=O)c5ccccc5C4=O)CC3)c(F)cc2c1=O [Compound 20, 1-Cyclopropyl-7-[4-(1,3-dioxo-1,3-dihydro-isoindol-2-ylmethyl)-piperazin-1-yl]-6-fluoro-4-oxo-1,4-dihydro-quinoline-3-carboxylic acid]",
214,"O=C(O)c1cn(C2CC2)c2cc(N3CCN(CN4C(=O)CCC4=O)CC3)c(F)cc2c1=O [Compound 21, 1-Cyclopropyl-7-[4-(2,5-dioxo-pyrrolidin-1-ylmethyl)-piperazin-1-yl]-6-fluoro-4-oxo-1,4-dihydro-quinoline-3-carboxylic acid]",

# More lines, now with the values behind:
Structure (SMILES),melting point [°C],other results
O=C(O)c1cn(C2CC2)c2cc(N3CCNCC3)c(F)cc2c1=O [Ciprofloxacin],,"MIC (B. subtilis): 0.01 µg/mL; MIC, S. aureus (S. aureus): 0.03 µg/mL; MIC (S. aureus): 0.03 µg/mL; MIC (E. coli): 0.06 µg/mL; MIC (P. aeruginosa): 0.06 µg/mL"
"O=C(O)c1cn(C2CC2)c2cc(N3CCN(Cn4nc(-c5ccccc5)oc4=S)CC3)c(F)cc2c1=O [Compound 1, 1-Cyclopropyl-6-fluoro-4-oxo-7-[4-(5-phenyl-2-thioxo[1,3,4]oxadiazol-3-yl-methyl)-piperazin-1-yl]-1,4-dihydro-quinoline-3-carboxylic acid]",228,
"O=C(O)c1cn(C2CC2)c2cc(N3CCN(Cn4nc(-c5ccccc5Cl)oc4=S)CC3)c(F)cc2c1=O [Compound 2, 7-{4-[5-(2-Chloro-phenyl)-2-thioxo-[1,3,4]oxadiazol-3-ylmethyl]-piperazin-1-yl}-1-cyclopropyl-6-fluoro-4-oxo-1,4-dihydro-quinoline-3-carboxylic acid]",226,"MIC (B. subtilis): 0.125 µg/mL; MIC, S. aureus (S. aureus): 0.062 µg/mL; MIC (S. aureus): 0.162 µg/mL; MIC (E. coli): 0.125 µg/mL; MIC (P. aeruginosa): 0.125 µg/mL; remaining activity at 1 µM (E. coli DNA gyrase): 57%; remaining activity at 1 µM (E. coli topoisomerase IV): 89%; viability at 4 days [1]: 87%"
"O=C(O)c1cn(C2CC2)c2cc(N3CCN(Cn4nc(-c5ccccc5)n(-c5ccccc5)c4=S)CC3)c(F)cc2c1=O [Compound 7, 1-Cyclopropyl-7-[4-(3,4-diphenyl-5-thioxo-4,5-dihydro-[1,2,4]triazol-1-ylmethyl)-piperazin-1-yl]-6-fluoro-4-oxo-1,4-dihydro-quinoline-3-carboxylic acid]",288,
"O=C(O)c1cn(C2CC2)c2cc(N3CCN(Cn4nc(-c5ccccc5Cl)n(-c5ccccc5)c4=S)CC3)c(F)cc2c1=O [Compound 8, 7-{4-[3-(2-Chloro-phenyl)-4-phenyl-5-thioxo-4,5-dihydro-[1,2,4]triazol-1-ylmethyl]-piperazin-1-yl}-1-cyclopropyl-6-fluoro-4-oxo-1,4-dihydro-quinoline-3-carboxylic acid]",214,
"O=C(O)c1cn(C2CC2)c2cc(N3CCN(Cn4nc(-c5ccc6ccccc6c5)n(-c5ccccc5)c4=S)CC3)c(F)cc2c1=O [Compound 9, 1-Cyclopropyl-6-fluoro-7-[4-(3-naphthalen-2-yl-4-phenyl-5-thioxo-4,5-dihydro-[1,2,4]triazol-1-ylmethyl)-piperazin-1-yl]-4-oxo-1,4-dihydro-quinoline-3-carboxylic acid]",262,
"O=C(O)c1cn(C2CC2)c2cc(N3CCN(Cn4nc(-c5ccccn5)n(-c5ccccc5)c4=S)CC3)c(F)cc2c1=O [Compound 10, 1-Cyclopropyl-6-fluoro-4-oxo-7-[4-(4-phenyl-3-pyridin-2-yl-5-thioxo-4,5-dihydro-[1,2,4]triazol-1-ylmethyl)-piperazin-1-yl]-1,4-dihydro-quinoline-3-carboxylic acid]",270,
